Experimental findings from publication PMC5614969, “High-Affinity Functional Fluorescent Ligands for Human β-Adrenoceptors” (Scientific Reports, 2017) are described below.

Series [1] is described as follows: pH dependence of ligand fluorescence. The class given is physicochemical. How it is done:
pH dependence of βAR ligands fluorescence were recorded on a multiwell plate reader Spark 20 M (Tecan) in 96-well glass bottom plates (MatTek Corporation; Cat. No. PBK96G-1.5-5-F) in PBS solutions (pH 4.7–8.0) at room temperature (25 °C). The 100x stock solutions of ligands were prepared in DMSO.

Series [2] is described as follows: Fluorescence increase upon addition of SDS to probe solutions. The class given is physicochemical. The settings on record: addition of 0.1% SDS to ligand in PBS pH 7.4 with 1 mg/ml BSA; mean ± SD, n=3. How it is done:
Fluorescence spectra of 1 µM solution of fluorescent dyes and ligands in PBS pH 7.4, PBS pH 7.4 + 1 mg/ml BSA (Sigma) and with or without 0.1% SDS (Acros Organics) were recorded on a multiwell plate reader Spark 20 M (Tecan) in half-area black 96-well plates (Greiner Bio-One, cat. 675076) at room temperature (25 °C) after 2 h incubation. Fluorescence emission was recorded from 600 nm to 800 nm with excitation at 580 nm. The emission bandwidth for all measurements was set to 5 nm. The spectra were averaged from 3 individual experiments. Ratios F(BSA+SDS)/F(BSA) of fluorescence signals at 635 nm for 610CP, 645 nm for BODIPY 630/650-X and 655 nm for KK114 conjugates were calculated. The obtained results are summarized (Table 1 and Supplementary Fig. 7).

For the next series, the target named is β2AR (Homo sapiens, UniProt P07550). The series is described as follows: TR-FRET receptor-ligand saturation binding assay, Tag-lite β2AR cells. The settings on record: for binding selectivity β2AR over β1AR: TR-FRET assay, ratio of Kd app; for Kd: β2AR, 2 h at room temperature, read-out: Kd app. How it is done:
To confirm whether the affinity of carazolol-KK114 (24) is sufficient for the intended imaging experiments and to evaluate its β2/β1AR selectivity, we performed a TR-FRET assay in Tag-lite β1AR or β2AR transfected cells (Cisbio) labeled with Tb^3+ cryptate (Lumi4-Tb) (Fig. 3c)[39]. […] (Fig. 3d, Supplementary Fig. 5b). The high affinities of both fluorescent ligands enabled the imaging experiments.
K d determination was performed on Tag-lite β1AR (Cisbio, Cat. No. C1TT1BETA1) or β2AR (Cisbio, Cat. No. C1TT1BETA2) Tb^3+ cryptate labeled transfected cells. The β1AR or β2AR cells labeled with SNAP-Terbium interact with the specific ligand labeled with the corresponding fluorophore. The fraction of bound ligand is proportional to the FRET signal. Donor Tb^3+ cryptate: exc. 340 nm, em. 490 nm, 546 nm, 583 nm, 620 nm; acceptor KK114: exc. 630 nm, em. 655 nm. The cells were thawed and suspended in 4.5 ml Tag-lite buffer (Cisbio, Cat. No. LABMED) according to the product information and transferred to half-area white polystyrene 96 well plates (Sigma, Cat. No. CLS3693) by 20 µl per well. 20 µl of a fluorescent probe or control compound in Tag-lite buffer was added to each well and incubated for 2 h at room temperature (20 °C) before readout. FRET readout was performed on a multiwell plate reader Spark 20 M (Tecan) at room temperature. […] All probe and control compound dilutions were prepared in DMSO, so that the final DMSO concentration was kept constant throughout the titration series. The ratio of the acceptor and donor emission signals was calculated for each individual well using equation (3):3 Ratio=Signal655nm−BackgroundSignal/Signal620nm−BackgroundSignal
Luminescence background signal was measured in wells containing 40 µl of Tag-lite buffer only. Specific binding was calculated by subtracting nonspecific binding ratio from total binding ratio at each fluorescent ligand concentration. K d ^app is determined by fitting data using GraphPad Prism 6 to one site specific binding with Hill slope equation (4):4 Specificsingalratio=A∗[probe]^h/(Kdapp)^h+[probe]^h
A is amplitude of specific signal ratio, [probe] - probe concentration, K d ^app - the ligand concentration needed to achieve a half-maximum binding at equilibrium, h - the Hill slope.
(In general: Time-resolved FRET reads energy transfer from a long-lived donor to a nearby acceptor.)

A further series deals with T1, β2AR-YFP fusion protein (Homo sapiens, UniProt P07550).
T1 construct: host or cells: U2OS
The series is described as follows: Confocal imaging of living U2OS cells expressing β2AR-YFP (staining, internalization, competitive displacement, no-wash). The class given is cell-based. Particulars: for Receptor internalization / Staining performance: U2OS cells expressing β2AR-YFP; for Staining performance: 610CP ligands at 1.9 µM (19) and 2.5 µM (16); for Competitive displacement: 100 nM probe (5 nM ab118171) with 10 µM unlabeled BI-167107 or carazolol, 30 min. Here is the method:
U2OS cells (ATCC) were cultured in high-glucose DMEM (Dulbecco’s Modified Eagle medium, Thermo Fisher Scientific) supplemented with GlutaMAX-1 (Thermo Fisher Scientific) and 10% fetal bovine serum (FBS) (Thermo Fisher Scientific) in a humidified 5% CO2 incubator at 37 °C. CAPAN-1 cells (ATCC) were cultured in McCoy’s 5a Medium Modified supplemented with 10% fetal bovine serum (FBS) (Thermo Fisher Scientific) in a humidified 5% CO2 atmosphere at 37 °C. Cells were split every 3–5 days or at confluence. Cells were seeded in glass bottom 12-well plates (MatTek Corporation). […] We used 200,000 cells per well, 3 µg plasmid DNA and 3 µl of Lipofectamine 2000.
We performed imaging 48–72 h after transfection. Staining of the transfected cell was performed in Hanks’ balanced salt solution (HBSS, Lonza) without Phenol Red for 30–40 min at room temperature (to minimize internalization). Samples were washed two times with HBSS, and cells were imaged in DMEM (Thermo Fisher Scientific) supplemented with GlutaMAX-1 (Thermo Fisher Scientific) and 10% fetal bovine serum (FBS). For all staining experiments with cells, stock solutions of dyes in DMSO were used, and final DMSO content was < 0.5%. Imaging was performed on Leica SP8 (Leica Microsystems) or Abberior STED (Abberior Instruments GmbH) microscopes.
Competitive displacement experiment was performed in living U2OS cells expressing β2AR-YFP fusion protein.
Confocal imaging was performed on a Leica SP8 (Leica Microsystems, Mannheim, Germany) inverted confocal microscope equipped with an HC PL APO CS2 63x/1.40 Oil objective. Images were acquired using a 700 Hz bidirectional scanner, pixel size of 70 nm × 70 nm, pinhole of 95.6 µm diameter(1 AU) and frame averaging of 2.

SMILES strings stand for the structures.

Sequence of β2AR (P07550 whole entry): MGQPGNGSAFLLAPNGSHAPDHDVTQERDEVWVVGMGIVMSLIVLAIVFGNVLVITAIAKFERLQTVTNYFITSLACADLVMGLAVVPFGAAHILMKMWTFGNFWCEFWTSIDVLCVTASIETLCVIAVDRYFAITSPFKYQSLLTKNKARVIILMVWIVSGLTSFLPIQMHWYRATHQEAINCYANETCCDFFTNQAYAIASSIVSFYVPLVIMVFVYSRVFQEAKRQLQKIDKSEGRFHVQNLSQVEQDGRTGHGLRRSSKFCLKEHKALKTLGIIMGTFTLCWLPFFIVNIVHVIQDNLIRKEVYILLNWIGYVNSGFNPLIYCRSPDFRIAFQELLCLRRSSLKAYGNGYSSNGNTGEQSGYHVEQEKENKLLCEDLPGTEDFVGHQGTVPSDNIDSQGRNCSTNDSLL
T1 sequence (P07550 whole entry, the tested form may be a part): as the sequence (P07550 whole entry) above

As to `CN(CCC(=O)NCCOCCOCCOCCOCCC(=O)NCCC(C)(C)NCC(O)COc1cccc2[nH]c3ccccc3c12)C(=O)c1c(F)c(F)c(F)c(F)c1C1=c2cc3c4c(c2Oc2c1cc1c5c2CCCN5C(C)(C)C=C1CS(=O)(=O)O)CCC[N+]=4C(C)(C)C=C3CS(=O)(=O)[O-]` (stereo not shown) [Carazolol-KK114 (24)], the “fluorescence intensity retained relative to maximal” value in series [1] (pH ~7 versus pH ~5) is “about 90%”. The “Fluorescence increase (F BSA+SDS / F BSA)” value in series [2] worked out at 5.9±1.5. Also, at β2AR, the “binding selectivity β2AR over β1AR” value is listed as “three-fold” and the Kd turned out to be 14.7 ± 0.9 nM. For the same compound, on β2AR-YFP fusion protein, the Receptor internalization entry was “Weak” and the Staining performance result is given as “Strong”. The Receptor internalization entry at β2AR-YFP fusion protein (listed as carazolol-KK114 (24)) was “did not change”. For the same compound, the “confocal staining at all tested concentrations” value at β2AR-YFP fusion protein (U2OS β2AR-YFP, 5 nM, 100 nM, 250 nM, 40 min) was “specific staining”. Besides, the Competitive displacement result on β2AR-YFP fusion protein (U2OS β2AR-YFP) was “Yes”. Besides, the Competitive displacement result on β2AR-YFP fusion protein (U2OS β2AR-YFP, listed as Carazalol-KK114 (24)) is “no background fluorescence”.
Compound `Cc1c(CCC(=O)NCCOCCOCCNC(=O)CCN(C)C(=O)c2c(F)c(F)c(F)c(F)c2C2=c3cc4c5c(c3Oc3c2cc2c6c3CCCN6C(C)(C)C=C2CS(=O)(=O)O)CCC[N+]=5C(C)(C)C=C4CS(=O)(=O)[O-])cccc1CC(C)(C)NCC(O)c1ccc(O)c2c1OCC(=O)N2` (stereo not shown) [BI-PEG-KK114 (18)] registered an emission intensity decrease in series [1] (at pH 8.0) of 30%. Further, the “Fluorescence increase (F BSA+SDS / F BSA)” value in series [2] is on record as 1.4±0.1. Also, on β2AR, the “binding selectivity β2AR over β1AR” value was “nine-fold” and the Kd is 7.2 ± 0.6 nM. Also, at β2AR-YFP fusion protein, the Receptor internalization result is “triggered extensive βAR internalization and Yes”; the Staining performance entry is “Strong”. Moreover, the Competitive displacement entry at β2AR-YFP fusion protein (U2OS β2AR-YFP) is “no signal and Yes”. Besides, the “confocal staining at 100 nM” value on β2AR-YFP fusion protein (U2OS β2AR-YFP, 100 nM, 40 min, room temperature, washed) is “performed well”. In addition, the “confocal staining at 250 nM” value at β2AR-YFP fusion protein (U2OS β2AR-YFP, 250 nM, 40 min, room temperature, washed) is on record as “performed well”.
